In patent US9029381B2, “Cyclopropyl amide derivatives” (Astrazeneca AB, priority 2007, dated 2015):

molecular target: human histamine H3 receptors (Homo sapiens (Human), UniProt Q9Y5N1); test: Histamine H3 SPA with the agonist radioligand [3H]-N-α-methylhistamine (hH3 binding); settings: inhibition of [3H]-N-α-methylhistamine (1.4 nM) binding to CHO-K1 membranes expressing full-length human H3 (isoform 445)
Protocol: Histamine H3 SPA with the Agonist Radioligand [^3H]-N-α-Methylhistamine
The H3 binding assay was/can be used to evaluate the ability of at least one compound in accordance with formula I, Ia, Ib, and/or Ic to inhibit [^3H]-N-α-methylhistamine binding to CHO-K1 membranes expressing human histamine H3 receptors (full-length H3, the most prevalent brain isoform 445). In 200 μl 96-well SPA format, human H3 membranes (12.5 μg protein/well) and 1.4 nM [^3H]-N-α-methylhistamine were/can be incubated with at least one compound in accordance with formula I, Ia, Ib, and/or Ic for 1.5 hrs to determine percent effect with respect to total (1% DMSO) and non-specific binding (10 μM imetit). […] Single poke (SP) testing can be done in triplicate.
Membranes, prepared from CHO-K1 cells stably expressing the human histamine H3 receptor, can be obtained from ACS.
Tested formula I, Ia, Ib, and/or Ic compounds were/can be provided as solubilized samples in neat DMSO. Serial dilutions were/can be performed in DMSO.
Plates were/can be 96-well Unifilter GF/B (Perkin Elmer, 6005177). Plates were/can be read on a Perkin Elmer TopCount. CPM data was/can be used to analyze unless DPM data generated by a quench curve was/is required.
• 1. 1 mg/ml BSA was/can be added to assay buffer (AB) on day of assay. • 2. Amounts required for bead/membrane pool in AB were/can be calculated: “P”−need 17.1 ml/assay plate+10 ml PlateMate excess. Buffer volume was/can be split between beads and membranes to allow for polytroning of membranes prior to addition to beads. • a. […] A minimum of 15 minutes was/can be waited prior to adding membranes (See b. below). • b. Membranes (hH3 membranes from CHO cells containing recombinant human H3 receptors, 11.7 mg/ml): membranes were/can be removed from −80° C. and thawed in RT waterbath. (0.0702 mg/ml×P) mg of membranes were/can be resuspended in the remaining volume not used with beads above for 12.5 μg/well final and homogenized briefly at polytron speed 5.0. The homogenized membrane mixture was/can be combined with the beads and a minimum of 30 minutes was/can be waited prior to dispensing to plate. • 3. Formula I, Ia, Ib, and/or Ic compounds: For Single Poke, 2 μl mM of a compound in accordance with formula I, Ia, Ib, and/or Ic was/can be dispensed to Optiplates (triplicate plates) for final a concentration of 10 μM. […] Imetit (see below) was/can be used as a control. • 4. […] [^3H]-N-α-methylhistamine ([^3H]-NAMH): A solution in AB at 14 nM, 10× final concentration of 1.4 nM was/can be prepared. 5 μl samples were/can be calculated in quadruplicate on the 13 counter. If concentration was/is 12-14.5 nM, no adjustment was/is may be required. (For IC50s, use final concentration on calculation tab of ABase template.) Assay • 1. […] 2 μl of the formula I, Ia, Ib, and/or Ic compound dilution was/can be mixed and then transferred into assay plates. DMSO was/can be removed and 2 μl of 100 μM Imetit was/can be added to the wells. • 3. 178 μl bead/membrane mixture was/can be dispensed into the assay plate. • 4. 20 μl [^3H]-NAMH was/can be added with Rapid Plate. The assay plate was/can be sealed and incubated for 1.5 hr on RT shaker at speed ˜6.5. • 5. The assay plate was/can be subsequently centrifuged at 1000 rpm for 10 minutes. • 6. The count was/can be performed on TopCount using one of the 3H SPA H3 Quench programs.
The DPM data was/can be analyzed when tSIS was/is less than that associated with 70% of full scale on the quench curve (tSIS<25%). Otherwise, CPM data was/is used.
(§1) The IC50 and nH can be determined by fitting the data to model 205 in XLfit: y=A+((B−A)/(1+((C/x)^D)). Guanosine 5′-O-(3-[^35S]thio)triphosphate [GTPγS] Binding Assay

Sequence of human histamine H3 receptors (Q9Y5N1 whole entry, canonical isoform): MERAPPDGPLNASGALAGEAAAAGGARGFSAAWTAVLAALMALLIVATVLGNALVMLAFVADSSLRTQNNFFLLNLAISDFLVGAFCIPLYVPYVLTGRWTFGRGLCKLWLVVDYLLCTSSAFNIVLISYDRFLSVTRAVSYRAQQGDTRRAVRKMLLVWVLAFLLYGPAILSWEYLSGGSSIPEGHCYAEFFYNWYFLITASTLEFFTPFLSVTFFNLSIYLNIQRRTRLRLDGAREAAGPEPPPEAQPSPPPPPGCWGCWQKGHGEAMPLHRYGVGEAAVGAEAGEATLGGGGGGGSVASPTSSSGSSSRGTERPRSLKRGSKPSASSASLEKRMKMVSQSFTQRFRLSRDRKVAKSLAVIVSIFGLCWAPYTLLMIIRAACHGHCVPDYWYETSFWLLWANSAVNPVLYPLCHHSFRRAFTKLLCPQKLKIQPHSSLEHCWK

Question: `O=C([C@H]1C[C@@H]1c1ccccc1)N1CCN(C2CCCCC2)CC1` (relative stereo) [Example 2, trans-(4-Cyclohexylpiperazin-1-yl)-(2-phenyl-cyclopropyl)methanone] was tested. Which IC50 did it give?
Answer: 105 nM

Question: With `O=C([C@H]1C[C@@H]1c1ccccc1)N1CCN(C2CCCCCC2)CC1` (relative stereo) [Example 3, trans-(4-Cycloheptylpiperazin-1-yl)-(2-phenylcyclopropyl)methanone] as the compound, how does the IC50 read?
Answer: 4160 nM

Question: `O=C([C@H]1C[C@@H]1c1ccccc1)N1CCN(C2CCC2)CC1` (relative stereo) [Example 4, trans-(4-Cyclobutylpiperazin-1-yl)-(2-phenylcyclopropyl)methanone] was tested. Which IC50 did it give?
Answer: 6.4 nM

Question: `O=C([C@H]1C[C@@H]1c1ccccc1)N1CCN(C2CC2)CC1` (relative stereo) [Example 5, trans-(4-Cyclopropylpiperazin-1-yl)-(2-phenylcyclopropyl)methanone] was tested. Which IC50 did it give?
Answer: 44.7 nM

Question: For `O=C([C@H]1C[C@@H]1c1ccccc1)N1CCN(C2CCCC2)CC1` (relative stereo) [Example 6, trans-(4-Cyclopentylpiperazin-1-yl)-(2-phenylcyclopropyl)methanone], which IC50 is on record?
Answer: 14 nM

Question: Which IC50 does the source give for `O=C([C@H]1C[C@@H]1c1ccccc1)N1CCCN(C2CCC2)CC1` (relative stereo) [Example 8, trans-(4-Cyclobutyl-1,4-diazepan-1-yl)-(2-phenylcyclopropyl)methanone] here?
Answer: 7.56 nM

Question: How did the IC50 turn out when `CC(C)(C)N1CCN(C(=O)[C@H]2C[C@@H]2c2ccccc2)CC1` (relative stereo) [Example 9, trans-(4-tert-Butylpiperazin-1-yl)-(2-phenylcyclopropyl)methanone] was run?
Answer: 45.3 nM

Question: `O=C([C@H]1C[C@@H]1c1ccc(Br)cc1)N1CCN(C2CCC2)CC1` (relative stereo) [Example 13, trans-[2-(4-Bromophenyl)cyclopropyl]-(4-cyclobutylpiperazin-1-yl)methanone] was tested. Which IC50 did it give?
Answer: 13.3 nM

Question: How did the IC50 turn out when `CN1CCN(c2ccc([C@H]3C[C@@H]3C(=O)N3CCN(C4CCC4)CC3)cc2)C1=O` (relative stereo) [Example 16, trans-1-{4-[2-(4-Cyclobutylpiperazine-1-carbonyl)cyclopropyl]phenyl}-3-methylimidazolidin-2-one] was run?
Answer: 441 nM

Question: How did the IC50 turn out when `CS(=O)(=O)Nc1ccc([C@H]2C[C@@H]2C(=O)N2CCN(C3CCC3)CC2)cc1` (relative stereo) [Example 18, trans-N-{4-[2-(4-Cyclobutylpiperazine-1-carbonyl)cyclopropyl]phenyl}methane-sulfonamide] was run?
Answer: 62.5 nM

Question: For `O=C([C@H]1C[C@@H]1c1ccc(N2CCCC2)cc1)N1CCN(C2CCC2)CC1` (relative stereo) [Example 19, trans-(4-cyclobutylpiperazin-1-yl) {-2-[4-(pyrrolidin-1-yl)phenyl]cyclopropyl}methanone], which IC50 is on record?
Answer: 351 nM

Question: How did the IC50 turn out when `O=C([C@H]1C[C@@H]1c1ccc(C(F)(F)F)nc1)N1CCN(C2CCC2)CC1` (relative stereo) [Example 26, trans-(4-Cyclobutylpiperazin-1-yl)(2-(6-(trifluoromethyl)pyridin-3-yl)cyclopropyl)methanone] was run?
Answer: 88.3 nM

Question: `O=C([C@@H]1C[C@H]1c1ccc(F)cc1)N1CCN(C2CCC2)CC1` (relative stereo) [Example 27, trans-(4-Cyclobutylpiperazin-1-yl)-[2-(4-fluorophenyl)cyclopropyl]methanone] was tested. Which IC50 did it give?
Answer: 7.3 nM

Question: `O=C([C@@H]1C[C@H]1c1cccc(Br)c1)N1CCN(C2CCC2)CC1` (relative stereo) [Example 28, trans-[2-(3-Bromophenyl)cyclopropyl]-(4-cyclobutylpiperazin-1-yl)methanone] was tested. Which IC50 did it give?
Answer: 1.37 nM

Question: With `N#Cc1cccc([C@@H]2C[C@H]2C(=O)N2CCN(C3CCC3)CC2)c1` (relative stereo) [Example 29, trans-3-[2-(4-cyclobutylpiperazine-1-carbonyl)cyclopropyl]benzonitrile] as the compound, how does the IC50 read?
Answer: 0.834 nM

molecular target: human Histamine H3 receptor (hH3R) (Homo sapiens (Human), UniProt Q9Y5N1); test: Guanosine 5'-O-(3-[35S]thio)triphosphate [GTPγS] binding assay; type: biochemical; settings: antagonist mode vs (R)-α-methyl histamine 30 nM; membranes from CHO cells expressing hH3R
Sequence (Q9Y5N1 whole entry): as the sequence (Q9Y5N1 whole entry, canonical isoform) above
Protocol: as §1
A GTPγS binding assay can be used to investigate antagonist properties of compounds in CHO cells (Chinese Hamster Ovary) transfected with human Histamine H3 receptor (hH3R). Membranes from CHO cells expressing hH3R (10 μg/well) are diluted in GTPγS assay buffer (20 mM Hepes, 10 mM MgCl2, 100 mM NaCl, pH 7.4) and preincubated with saponine (3 μg/ml), GDP (10 μM) and PVT-WGA SPA beads (125 μg/well) (Amersham) for 30 minutes. To determine antagonist activity, (R)-α-methyl histamine (30 nM) is added in 96 well SPA plate with [^35S]GTPγS (0.2 nM) and various concentration of H3R antagonists. The GTPγS binding assay is started with addition of the mixture membrane/saponine/GDP and incubated for 90 minutes at room temperature. The amount of bound [^35S]GTPγS is determined by using the MicroBeta Trilux counter (PerkinElmer). The percentage of [^35S]GTPγS bound in each sample is calculated as a percentage of that bound control sample incubated in absence of H3 antagonist. Duplicate determinations are obtained for each concentration, and the data are analyzed using ExcelFit4 to obtain the IC50.

Question: Which IC50 does the source give for `CS(=O)(=O)Nc1cccc([C@@H]2C[C@H]2C(=O)N2CCN(C3CCC3)CC2)c1` (relative stereo) [Example 30, trans-N-{3-[2-(4-Cyclobutylpiperazine-1-carbonyl)cyclopropyl]phenyl}methanesulfonamide] here?
Answer: 8.59 nM

Question: For `NC(=O)c1cccc([C@@H]2C[C@H]2C(=O)N2CCN(C3CCC3)CC2)c1` (single isomer, unassigned; enantiomer 1) [Example 36, 3-((trans)-2-(4-cyclobutylpiperazine-1-carbonyl)cyclopropyl)benzamide, enantiomer 1], which IC50 is on record?
Answer: 6.19 nM

Question: How did the IC50 turn out when `O=C([C@@H]1C[C@H]1c1cccc(N2CCCC2=O)c1)N1CCN(C2CCC2)CC1` (single isomer, unassigned; enantiomer 1) [Example 38, 1-(3-((trans)-2-(4-cyclobutylpiperazine-1-carbonyl)cyclopropyl)phenyl)pyrrolidin-2-one, enantiomer 1] was run?
Answer: 11.6 nM

Question: Which IC50 does the source give for `O=C([C@@H]1C[C@H]1c1cccc(N2CCCCC2=O)c1)N1CCN(C2CCC2)CC1` (single isomer, unassigned; enantiomer 1) [Example 40, 1-(3-((trans)-2-(4-cyclobutylpiperazine-1-carbonyl)cyclopropyl)phenyl)piperidin-2-one, enantiomer 1] here?
Answer: 18.2 nM

Question: For `NC(=O)c1ccc([C@@H]2C[C@H]2C(=O)N2CCN(C3CCC3)CC2)cc1` (single isomer, unassigned; enantiomer 1) [Example 43, 4-((trans)-2-(4-cyclobutylpiperazine-1-carbonyl)cyclopropyl)benzamide, enantiomer 1], which IC50 is on record?
Answer: 3.81 nM

Question: Which IC50 does the source give for `NC(=O)c1cccc([C@@H]2C[C@H]2C(=O)N2CCN(C3CCC3)CC2)c1` (single isomer, unassigned; enantiomer 2) [Example 37, 3-((trans)-2-(4-cyclobutylpiperazine-1-Carbonyl)cyclopropyl)benzamide, enantiomer 2] here?
Answer: > 1050 nM

Question: `O=C([C@@H]1C[C@H]1c1cccc(N2CCCC2=O)c1)N1CCN(C2CCC2)CC1` (single isomer, unassigned; enantiomer 2) [Example 39, 1-(3-((trans)-2-(4-cyclobutylpiperazine-1-carbonyl)cyclopropyl)phenyl)pyrrolidin-2-one, enantiomer 2] was tested. Which IC50 did it give?
Answer: > 1800 nM

Question: `O=C([C@@H]1C[C@H]1c1cccc(N2CCCCC2=O)c1)N1CCN(C2CCC2)CC1` (single isomer, unassigned; enantiomer 2) [Example 41, 1-(3-((trans)-2-(4-cyclobutylpiperazine-1-carbonyl)cyclopropyl)phenyl)piperidin-2-one, enantiomer 2] was tested. Which IC50 did it give?
Answer: 733 nM
